Measurements taken from ChEMBL document CHEMBL3632483, “Synthesis and pharmacological evaluation of piperidine (piperazine)-substituted benzoxazole derivatives as multi-target antipsychotics” (Bioorg Med Chem Lett, 2015).

Experiments:
D(2) dopamine receptor = D(2) dopamine receptor (Rattus norvegicus, UniProt P61169); assay: Displacement of [3H]spiperone from dopaminergic D2 receptor in rat striatum homogenates after 60 mins by liquid scintillation counting
[1] = biological target: T1, 5-hydroxytryptamine receptor 1A (Rattus norvegicus, UniProt P19327); assay: Displacement of [3H]8-OH-DPAT from 5-HT1A receptor in rat cerebral cortex homogenates after 60 mins by liquid scintillation counting; format: tissue-based
T1 sequence (P19327 whole entry): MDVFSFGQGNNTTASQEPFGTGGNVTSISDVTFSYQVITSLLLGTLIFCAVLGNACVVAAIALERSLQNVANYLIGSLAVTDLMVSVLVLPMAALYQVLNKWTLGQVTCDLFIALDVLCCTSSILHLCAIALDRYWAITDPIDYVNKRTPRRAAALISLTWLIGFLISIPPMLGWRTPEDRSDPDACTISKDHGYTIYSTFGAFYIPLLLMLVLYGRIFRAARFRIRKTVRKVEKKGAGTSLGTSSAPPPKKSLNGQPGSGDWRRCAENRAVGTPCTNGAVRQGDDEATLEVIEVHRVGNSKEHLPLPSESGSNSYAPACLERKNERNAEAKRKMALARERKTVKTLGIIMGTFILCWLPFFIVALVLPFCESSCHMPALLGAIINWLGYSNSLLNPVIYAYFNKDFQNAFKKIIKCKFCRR

[2] = biological target: 5-hydroxytryptamine receptor 2A (Rattus norvegicus, UniProt P14842); assay: Displacement of [3H]ketanserine from 5-HT2A receptor in rat cerebral cortex homogenates after 60 mins by liquid scintillation counting; format: tissue-based
Chain of 5-hydroxytryptamine receptor 2A (P14842 whole entry): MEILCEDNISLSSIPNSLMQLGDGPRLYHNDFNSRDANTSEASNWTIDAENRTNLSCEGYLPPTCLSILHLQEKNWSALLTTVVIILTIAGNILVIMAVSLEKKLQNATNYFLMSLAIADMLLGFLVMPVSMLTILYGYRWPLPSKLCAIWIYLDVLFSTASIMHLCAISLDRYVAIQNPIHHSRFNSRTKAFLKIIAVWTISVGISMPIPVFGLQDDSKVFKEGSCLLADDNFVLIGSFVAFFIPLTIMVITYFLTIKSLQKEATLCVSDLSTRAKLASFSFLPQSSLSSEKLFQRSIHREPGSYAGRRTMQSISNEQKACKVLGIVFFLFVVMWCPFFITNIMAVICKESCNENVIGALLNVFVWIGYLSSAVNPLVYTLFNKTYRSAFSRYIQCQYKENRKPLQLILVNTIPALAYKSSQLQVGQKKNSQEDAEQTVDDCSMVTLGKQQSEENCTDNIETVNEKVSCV

[3] = biological target: T2, Adrenergic receptor alpha-2 (Rattus norvegicus, UniProt P22086+P19328+P22909); assay: Displacement of [3H]-rauwolscine from adrenergic alpha2 receptor in rat cerebral cortex homogenates after 60 mins by liquid scintillation counting; format: tissue-based
T2 sequence (P22086 whole entry): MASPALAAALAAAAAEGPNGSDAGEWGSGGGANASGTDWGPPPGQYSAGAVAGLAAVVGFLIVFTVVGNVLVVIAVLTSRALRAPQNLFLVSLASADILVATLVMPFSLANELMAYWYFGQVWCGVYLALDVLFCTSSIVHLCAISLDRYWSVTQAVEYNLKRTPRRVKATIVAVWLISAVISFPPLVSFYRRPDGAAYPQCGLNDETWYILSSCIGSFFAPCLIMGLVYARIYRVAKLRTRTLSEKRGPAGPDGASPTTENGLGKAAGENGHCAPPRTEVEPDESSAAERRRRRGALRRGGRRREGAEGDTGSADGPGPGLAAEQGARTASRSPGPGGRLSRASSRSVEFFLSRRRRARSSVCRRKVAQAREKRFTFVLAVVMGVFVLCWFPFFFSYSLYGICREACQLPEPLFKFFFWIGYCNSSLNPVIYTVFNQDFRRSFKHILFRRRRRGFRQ
T2 sequence (P19328 whole entry): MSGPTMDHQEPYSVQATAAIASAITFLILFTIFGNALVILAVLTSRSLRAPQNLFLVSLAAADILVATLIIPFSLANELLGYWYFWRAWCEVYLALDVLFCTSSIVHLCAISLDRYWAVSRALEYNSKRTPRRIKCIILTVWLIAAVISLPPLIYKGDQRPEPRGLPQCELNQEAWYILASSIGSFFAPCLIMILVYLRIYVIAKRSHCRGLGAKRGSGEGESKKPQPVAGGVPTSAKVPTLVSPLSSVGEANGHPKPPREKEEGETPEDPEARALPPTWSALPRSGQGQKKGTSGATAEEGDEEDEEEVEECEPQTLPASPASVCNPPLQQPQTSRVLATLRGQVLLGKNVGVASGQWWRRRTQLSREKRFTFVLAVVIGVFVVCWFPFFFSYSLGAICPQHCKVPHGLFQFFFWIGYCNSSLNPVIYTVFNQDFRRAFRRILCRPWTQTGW
T2 sequence (P22909 whole entry): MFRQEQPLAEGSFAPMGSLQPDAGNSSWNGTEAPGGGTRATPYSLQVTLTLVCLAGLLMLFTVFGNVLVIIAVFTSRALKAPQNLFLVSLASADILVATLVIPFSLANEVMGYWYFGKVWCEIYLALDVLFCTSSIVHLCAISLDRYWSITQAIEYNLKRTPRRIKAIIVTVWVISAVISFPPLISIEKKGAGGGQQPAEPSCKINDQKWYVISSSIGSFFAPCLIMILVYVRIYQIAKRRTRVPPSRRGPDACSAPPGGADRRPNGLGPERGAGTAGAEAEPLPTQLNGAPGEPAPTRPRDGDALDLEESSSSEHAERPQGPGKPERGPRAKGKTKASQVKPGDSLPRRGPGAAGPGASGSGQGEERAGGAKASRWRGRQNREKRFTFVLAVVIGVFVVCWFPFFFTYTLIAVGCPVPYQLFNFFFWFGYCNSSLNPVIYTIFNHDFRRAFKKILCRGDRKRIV

[4] = biological target: T3, 5-hydroxytryptamine receptor 2C (Rattus norvegicus, UniProt P08909); assay: Displacement of [3H]mesulergine from 5-HT2C receptor in rat cerebral cortex homogenates after 60 mins by liquid scintillation counting; format: tissue-based
T3 sequence (P08909 whole entry): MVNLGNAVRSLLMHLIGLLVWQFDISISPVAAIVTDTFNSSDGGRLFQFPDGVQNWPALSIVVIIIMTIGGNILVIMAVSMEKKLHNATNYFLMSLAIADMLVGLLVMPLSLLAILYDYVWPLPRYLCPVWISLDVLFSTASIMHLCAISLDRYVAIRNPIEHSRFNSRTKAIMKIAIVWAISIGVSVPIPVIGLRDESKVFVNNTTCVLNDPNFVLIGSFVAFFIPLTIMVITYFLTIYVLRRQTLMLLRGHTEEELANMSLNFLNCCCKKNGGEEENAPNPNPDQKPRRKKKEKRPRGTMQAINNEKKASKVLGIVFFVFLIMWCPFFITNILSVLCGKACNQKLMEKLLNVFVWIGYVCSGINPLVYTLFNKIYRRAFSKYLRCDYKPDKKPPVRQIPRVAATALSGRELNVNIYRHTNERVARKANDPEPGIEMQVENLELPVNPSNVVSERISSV

[5] = Acute toxicity in Sprague-Dawley rat; format: organism-based; conditions: in vivo
[6] = biological target: 5-hydroxytryptamine receptor 7 (Rattus norvegicus, UniProt P32305); assay: biochemical
Chain of 5-hydroxytryptamine receptor 7 (P32305 whole entry): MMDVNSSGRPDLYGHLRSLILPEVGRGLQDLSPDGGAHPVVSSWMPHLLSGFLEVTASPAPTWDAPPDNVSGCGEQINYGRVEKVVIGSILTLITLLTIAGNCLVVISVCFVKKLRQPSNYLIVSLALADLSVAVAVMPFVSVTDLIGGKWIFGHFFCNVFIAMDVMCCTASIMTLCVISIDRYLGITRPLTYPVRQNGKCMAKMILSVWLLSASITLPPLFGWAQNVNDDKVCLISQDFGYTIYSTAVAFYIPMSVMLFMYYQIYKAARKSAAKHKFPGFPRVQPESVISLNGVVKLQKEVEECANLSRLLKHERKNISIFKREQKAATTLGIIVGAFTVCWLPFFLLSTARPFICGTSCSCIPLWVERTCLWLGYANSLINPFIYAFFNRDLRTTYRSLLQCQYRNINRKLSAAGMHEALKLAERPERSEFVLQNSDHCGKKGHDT
Description: Displacement of [3H]-5-CT from 5-HT7 receptor in rat hypothalamus homogenates after 120 mins by liquid scintillation counting

Chain of D(2) dopamine receptor (P61169 whole entry): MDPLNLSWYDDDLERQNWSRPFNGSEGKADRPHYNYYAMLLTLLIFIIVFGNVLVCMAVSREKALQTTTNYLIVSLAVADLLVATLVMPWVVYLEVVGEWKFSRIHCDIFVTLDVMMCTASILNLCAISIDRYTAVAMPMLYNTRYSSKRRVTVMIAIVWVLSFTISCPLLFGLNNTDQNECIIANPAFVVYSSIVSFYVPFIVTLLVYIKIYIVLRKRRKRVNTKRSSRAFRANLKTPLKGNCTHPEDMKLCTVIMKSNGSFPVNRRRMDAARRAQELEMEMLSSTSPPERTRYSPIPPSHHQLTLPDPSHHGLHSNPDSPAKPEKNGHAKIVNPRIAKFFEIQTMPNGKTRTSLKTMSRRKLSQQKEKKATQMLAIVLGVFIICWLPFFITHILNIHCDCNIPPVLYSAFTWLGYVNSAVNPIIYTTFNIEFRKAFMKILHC

Compound: Fc1ccc2c(C3CCN(CCCOc4ccc(-c5nc6ccccc6o5)cc4)CC3)noc2c1
- Ki (D(2) dopamine receptor): 0.0221 µM
- Ki [1]: 0.0835 µM
- Ki [2]: 0.0083 µM
- Ki [3]: 0.153 µM
- Ki [4]: 0.186 µM
- LD50 [5]: > 2000 mg/kg
- Ki [6]: 0.765 µM

Compound: Fc1ccc2c(C3CCN(CCCOc4ccc(Cc5nc6ccccc6o5)cc4)CC3)noc2c1
- Ki (D(2) dopamine receptor): 0.0106 µM
- Ki [1]: 0.0213 µM
- Ki [2]: 0.0027 µM
- Ki [3]: 0.0163 µM
- Ki [4]: 1.99 µM
- LD50 [5]: > 2000 mg/kg
- Ki [6]: 0.0189 µM
